Where two headings read alike, the source gives them in different places.
Legend:
[1] = Foam height test (vortexed paste/gel/water mixture with surfactant); assay type: physicochemical; conditions: 1% total surfactant (actives); for Total Height: 1 g surfactant-free paste of Table 1, 1 g surfactant-free gel of Table 2, 6 g water, vortex 1 minute, foam plus liquid underneath; for Liquid Height: volume of liquid underneath the foam, less than 5 mL not quantifiable
Description: The test used 1% total surfactant (actives). The surfactant was added to an aqueous mixture containing 1 g of surfactant-free paste of Table 1, 1 g of the surfactant-free version of the gel of Table 2, and 6 g of water. The mixture, prepared in a centrifuge tube, is placed on a Vortex-Genie 2 (Scientific Industries) on setting 5, and allowed to vortex for 1 minute. The total height measured was the total volume of the foam plus any liquid underneath. The liquid height was the volume of liquid underneath the foam. Liquid volumes of less than 5 mL could not be quantified since the lowest level on the centrifuge tube used to conduct the foam test was 5 mL.

[2] = assay type: physicochemical; conditions: paste of Table 1 with surfactant

Row | Compound | Total Height [1] | Liquid Height [1] | Phase Behavior ([2]; stored at 100° F.) | Phase Behavior ([2]; stored at RT) | Saturated solution concentration
1 | CCCCCCCCCCOS(=O)(=O)[O-].[Na+] [SDS, Sodium Decyl Sulfate] | 19 mL | <5 mL |  |  | 
2 | CCCCCCCCCCCCOS(=O)(=O)[O-].[Na+] [SLS, Sodium Lauryl Sulfate] | 9 mL | 7 mL | Single Phase | Single Phase | 
3 | O=C([O-])O.[Na+] [sodium bicarbonate] |  |  |  |  | about 3.8%
4 | Cocamidopropyl Betaine [CBT] | 10 mL | 7 mL |  |  | 

Other lines, results leading:

Row | Total Height [1] | Liquid Height [1] | Phase Behavior ([2]; stored at 100° F.) | Phase Behavior ([2]; stored at RT) | Saturated solution concentration | Compound
5 | 9 mL | 7 mL |  |  |  | Sodium Laureth Sulfate, 1 Ether Group [SLES-1]
6 | 9 mL | 7 mL |  |  |  | Sodium Laureth Sulfate, 2 Ether Groups [SLES-2]
7 | 10 mL | 7 mL |  |  |  | Sodium Laureth Sulfate, 3 Ether Groups [SLES-3]

Reference: patent US20060093562A1 (priority 2004, published 2006)
